The source of these data is patent US11795481B2, “Processes for producing a fermentation product” (Novozymes A/S, priority 2017, dated 2023).

One data set has as its system multi-strain LAB culture. Kind of data set: SSF of control mash with 1% w/w infected mash, AA13 candidates, HPLC of organic acids and ethanol (Example 3). The following applies: SSF 32° C. up to 24 hours, 20% DS; for % delta Ethanol / % delta Lactic Acid: vs No Treatment. Format: cell-based. How it is done:
A control mash was prepared in-house with an industry relevant blend of AA369 and Protease Pfu using a Lab-O-Mat incubator for 2 hours at 85° C. and 36% DS to simulate typical industry conditions. The mash was then frozen prior to use in SSF. An infected mash was prepared by infecting the control mash with a multi-strain LAB culture grown in MRS. The bacteria in control mash was incubated overnight, and then frozen with 20% glycerol. For this experiment, 1% weight/weight of the infected mash was mixed into the control mash. This mimics an infection event at a large-scale ethanol facility. For SSF, all mash was prepared with 1000 ppm of urea to aid with yeast fermentation. All treatments were dosed with a baseline commercial glucoamylase GSA, while AA13 candidates were dosed at either 10 ug/g-DS or 50 ug/g-DS. SSF was performed at 5 g scale with 10 uL/g rehydrated Ethanol Red yeast at 32° C. for up to 24 hours at 20% DS. At the end of fermentation, samples were deactivated with 50 uL of 40% sulfuric acid and then centrifuged. The supernatant was filtered through a 0.2 μm filter and then measured for soluble carbohydrates and organic acids using an ion-exchange H-column on HPLC.

Data set [1] relates to mixed bacterial population previously isolated from an infected commercial corn mash. Description: Low Dry Solids fermentation of 1% infected liquefied corn mash with AA13 polypeptides, HPLC analysis (Example 2). The data set is classed as cell-based. To be noted: after 20 hrs of Low Dry Solids fermentation of corn mash; increasing doses; vs control. How it is done: Clean liquefied corn mash: Clean corn mash was prepared in our laboratories under typical liquefaction conditions using a blend of AA369 and Protease Pfu. […] Substrate is stored frozen and thawed before use.
Infected liquefied corn mash: Clean corn mash was inoculated with a mixed bacterial population previously isolated from an infected commercial corn mash. The infected mash was incubated with the inoculant for up to 24 hours at approximately 32° C. […] Substrate is frozen in 20% glycerol solution and then thawed before use.
1% Infected liquefied mash: Per every 100 g of “clean” mash, 1 g of infected mash is added and mixed thoroughly.
Low Dry Solids fermentation. 1% Infected Mash was diluted to 20% dry solids. 200 ppm target urea was added as an exogenous nitrogen source for yeast. Commercial glucoamylase GSA, was used at a dose of 0.6 AGU/g-dry solids. Yeast was pitched at a rate of 0.25 g/L. Experimental enzymes were dosed between 2 ppm and 100 ppm. Dosage were against dry solids.
Positive control: Penicillin was used at 25 ppm.
Negative control: No treatment was added.
Yeast, enzymes, and any additional tap water was added at approximately the same time to start fermentation. […]
Fermentations were sampled at various time points to examine soluble carbohydrates and organic acids. […] Analytes were quantified against internal standards. […]
Data was analyzed using SAS JMP statistical software.

For data set [2] the following is noted: relative to the parent Penicillium oxalicum glucoamylase; cited from earlier work.

On to “Aspergillus terreus: AA13 polypeptide from Aspergillus terreus having the amino acid sequence of SEQ ID NO: 119”, for which, in the data set with multi-strain LAB culture (AA13 dose 10 ug/g-DS), the “average Ethanol” value stood at 77.1 g/L, the “average Lactic Acid” value was determined as 3.4 g/L, the “% delta Ethanol” value is reported as −0.7% and the “% delta Lactic Acid” value worked out at 1.3%. Besides, in the data set with multi-strain LAB culture (AA13 dose 50 ug/g-DS), the “average Ethanol” value worked out at 78.0 g/L, the “average Lactic Acid” value is reported as 3.4 g/L, the “% delta Ethanol” value amounted to 0.4% and the “% delta Lactic Acid” value is recorded as 1.3%. In addition, the “lactic acid titers, dose response (FIG. 5)” value in data set [1] is “reduced lactic acid titers compared to the control”.

B1: PE001: variant of the Penicillium oxalicum glucoamylase of SEQ ID NO: 106 having a K79V substitution (protein, listed as Penicillium oxalicum)
chain: RPDPKGGNLTPFIHKEGERSLQGILDNLGGRGKKTPGTAAGLFIASPNTENPNYYYTWTRDSALTAKCLIDLFEDSRAVFPIDRKYLETGIRDYKSSQAILQSVSNPSGTLKDGSGLGEPKFEIDLNPFSGAWGRPQRDGPALRATAMITYANYLISHGQKSDVSQVMWPIIANDLAYVGQYWNNTGFDLWEEVDGSSFFTIAVQHRALVEGSQLAKKLGKSCDACDSQPPQILCFLQSFWNGKYITSNINTQASRSGIDLDSVLGSIHTFDPEAACDDATFQPCSARALANHKVYVDSFRSIYKINAGLAEGSAANVGRYPEDVYQGGNPWYLATLGASELLYDALYQWDRLGKLEVSETSLSFFKDFDATVKIGSYSRNSKTYKKLTQSIKSYADGFIQLVQQYTPSNGSLAEQYDRNTAAPLSANDLTWSFASFLTATQRRDAVVPPSWGAKSANKVPTTCSASPVVGTYKAPTATFSSKTKCVPAKDIVPITFYLIENTYYGENVFMSGNITALGNWDAKKGFPLTANLYTQDQNLWFASVEFIPAGTPFEYKYYKVEPNGDITWEKGPNRVFVAPTGCPVQPHSNDVWQF
Regarding B1, the “sensitivity to protease degradation” value in data set [2] is on record as “reduced sensitivity to protease degradation relative to the parent”.
